According to patent publication US20080171059A1, “METHODS AND COMPOSITIONS FOR INCREASED PRIMING OF T-CELLS THROUGH CROSS-PRESENTATION OF EXOGENOUS ANTIGENS” (priority 2006, published 2008):

Key:
[1] = biological target: Cathepsin S (Homo sapiens, UniProt P25774); assay: Cleavage of antigen sequences by Cathepsin S; assay type: biochemical; conditions: cleavage positions MQ|AE and NLVPMVA|TV
[2] = system: CD8+ T cell line specifically recognizing the N9V/HLA-A*0201 complex; assay: Cross-presentation assay: yeast-fed monocyte-derived DCs stimulate IFNγ secretion in co-cultured N9V-specific CD8+ T cells; assay type: cell-based, human
Description: An interferon gamma (IFNY) secretion cell capture FACS assay was performed on the T cells to quantify the percentage of cells that had been activated as a result of cross-presentation by the DCs.
The monocytes were aliquoted into vials and cryopreserved in 90% fetal bovine serum (FBS), 10% DMSO. […] Unless otherwise indicated, media components were from Hyclone (Logan, Utah); low endotoxin products were chosen where available. 4-5×10^6 monocytes were cultured per well of a 6-well plate in 2.5 ml C10 medium supplemented with 1000 U/ml each of interleukin-4 and granulocyte-macrophage colony stimulating factor (C10GF; cytokines from R & D Systems, Minneapolis, Minn.). After 2 and 4 days of culture, each well was topped up with 0.5 ml C10GF; after 6 days of culture, floating and loosely adherent monocyte-derived DCs were harvested by gentle resuspension.
Cross-presentation Assay After 6 days of differentiation, monocyte-derived DCs were seeded in 96-well round bottom plates at 1 or 2×10^5 cells in 200 μl C10GF per well. Appropriate numbers of yeast cells (measured by optical density at 600 nm with 10D≈10^7/ml) were rendered non-viable by UV-irradiation (2×1000 J/m^2 in a Stratalinker, Stratagene, La Jolla, Calif.), pelleted by centrifugation and added to the DCs. For inhibition experiments, DCs were pre-incubated with lactacystin (5 μM; Calbiochem, San Diego, Calif.) or chloroquine (25 μM) for one hour before yeast samples were introduced. […] Following 4 h of co-culture, the contents of each well were transferred to tubes for labeling with Miltenyi's IFNY secretion assay kit (Bergisch Gladbach, Germany) according to the recommended protocol. […] The percentage of CD8^+ cells that were IFNY+ was determined by flow cytometry (Coulter Epics XL, Fullerton, Calif. or BD FACSCalibur). The cut-off PE fluorescence was set for each experiment such that about 0.5% of T cells were IFNY+ in a negative control sample (no yeast or peptide).
Surface Display Antigen Dose Normalization In experiments where different linkers were used to surface-display antigen, several cultures of each yeast sample were induced, and cultures with mean antigen levels within 10% of each other were selected to minimize the effect of variable antigen dose on cross-presentation. […] Therefore, each yeast sample was mixed with the appropriate amount of EBY100 yeast to normalize the antigen dose while maintaining the 20:1 ratio of yeast to DCs.

Cathepsin S, sequence (P25774 115-331): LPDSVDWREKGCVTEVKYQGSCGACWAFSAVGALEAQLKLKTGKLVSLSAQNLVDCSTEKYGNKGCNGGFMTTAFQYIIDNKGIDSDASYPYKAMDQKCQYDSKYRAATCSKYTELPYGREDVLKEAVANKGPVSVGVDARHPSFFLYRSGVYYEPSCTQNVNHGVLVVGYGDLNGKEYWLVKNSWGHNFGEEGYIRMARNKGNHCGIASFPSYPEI

In the case of “NLVPMVATV [cytomegalovirus epitope, HLA-A*0201-restricted peptide derived from CMV phosphoprotein pp 65]”, the “Cleavage by Cathepsin S” value [1] is reported as “cleaved rapidly”.
With “ARNLVPMVATVQGQN [15-mer extended CMV pp 65 peptide containing N9V, positive control]” the “Percentage of IFNγ+ T cells” value ([2]; positive control, 1 μM extended peptide) was 45-70%.
CC(=O)N[C@@H](CSC(=O)[C@]1([C@@H](O)C(C)C)NC(=O)[C@H](C)[C@@H]1O)C(=O)O [lactacystin] was tested, and the “Effect of inhibitor on cross-presentation of surface-displayed antigen” value ([2]; EBYN9V yeast 20:1, lactacystin 5 μM or chloroquine 25 μM added one hour before yeast) was “strongly inhibited”, the “Effect of inhibitor on cross-presentation of strains with deleted, C1 and (C1)4 linkers” value ([2]; all three integrated strains, lactacystin 5 μM or chloroquine 25 μM) was “inhibited” and the “Effect of inhibitor on cross-presentation of intracellular antigen” value ([2]; yeast expressing Aga2p-N9V intracellularly 20:1, lactacystin 5 μM or chloroquine 25 μM) was “inhibited”.
